Assay results as given in patent publication US8415393B2, “Anti-bacterial drug targeting of genome maintenance interfaces” (Wisconsin Alumni Research Foundation, priority 2007, dated 2013).
Positions count from the first letter of the chain named. In names and notes the source's numbering stands. Entries after “also recorded” stand apart in the source; their conditions may differ. Where two headings read alike, the source gives them in different places. Where no end group is shown, it is not given here. fluorescein = fluorescein moiety attached to the N-terminus of the peptide (N-terminal fluorescein label)

How the values were obtained:
[1] = system: E. coli 4213 (imp4213, compromised cell wall); assay: microbe, parasite or virus in culture; assay type: cell-based; conditions: Escherichia coli
Description: The compromised cell wall allows the chemicals to pass through it more readily.
(§1) 100 μL of LB containing E. coli 1655, E. coli 4213, or S. aureus at A ˜0.05 OD 600 was aliquoted in 96 well plates. One μL of compound in DMSO was added to final concentrations given. Plates were incubated at 37° C. with shaking at 250 RPM. Rate of growth was calculated by determining the average change in OD/hour that took place between hours 3 and 7 (log growth phase). The graphs shown herein are plots of this bacterial growth rate (change in OD/h) against inhibitor concentration in μM.

[2] = target: Exonuclease I/SSB-Ct complex (Escherichia coli, UniProt P04995); assay: Fluorescence polarization competition: inhibition of fluorescein-SSB C-terminal peptide binding to Exonuclease I (HTS and Ki determination); conditions: for peptide binding inhibition: ExoI/SSB-Ct peptide
Chain of Exonuclease I/SSB-Ct complex (P04995 whole entry, one chain of several): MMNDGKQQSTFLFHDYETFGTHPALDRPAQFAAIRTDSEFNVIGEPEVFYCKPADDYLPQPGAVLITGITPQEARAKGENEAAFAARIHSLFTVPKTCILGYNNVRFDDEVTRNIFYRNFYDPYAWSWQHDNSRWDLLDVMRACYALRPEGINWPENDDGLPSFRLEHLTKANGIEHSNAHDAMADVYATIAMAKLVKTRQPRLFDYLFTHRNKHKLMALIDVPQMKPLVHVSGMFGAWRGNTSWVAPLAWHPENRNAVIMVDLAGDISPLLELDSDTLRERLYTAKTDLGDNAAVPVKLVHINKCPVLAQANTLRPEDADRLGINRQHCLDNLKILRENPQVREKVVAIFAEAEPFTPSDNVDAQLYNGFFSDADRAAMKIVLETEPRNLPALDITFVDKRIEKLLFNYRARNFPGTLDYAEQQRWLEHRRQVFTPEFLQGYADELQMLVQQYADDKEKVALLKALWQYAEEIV
Description: Peptide binding assays were performed in solution, using the peptides from above, and Exonuclease I, in the absence or presence of various compounds. Different amounts of Exonuclease I (ExoI) were used in the peptide binding assays. […] Fluorescence polarization (FP) was measured at 25° C. in triplicate; the average FP value was plotted with standard deviation of the mean shown as error.
Concentrated Exonuclease I was dialyzed overnight into 2 liters dilution buffer (DB) (20 mM Tris pH 8.0 HCl, 100 mM NaCl, 1 mM MgCl2, and 1 mM Beta-Mercaptoethanol). […] After sitting at room temperature for 5 min, a liquid handling system was used to aliquot this solution into 384 well plates providing 30 microliters/well. One microliter of 1 mM compound was then added. The screened compounds were obtained from the ChemBridge DIVERSet library (ChemBridge Corporation, San Diego, Calif.), from the Maybridge HitFinder library (Thermo Fisher Scientific, Waltham, Mass.), from the ChemDiv library (Chemical Diversity Labs, San Diego, Calif.), or from the Known Bioactive Library—KBA01.
The FP (fluorescence polarization) values for each well were read using a (plate reader) 5 minutes after compound addition.
Increasing amounts of compound were titrated into peptide protein mixture until FP values were lowered to values given by only fluorescently labeled peptide alone. Ki values were determined using the Ki calculator for fluorescence-based competitive binding assays of Prof. Shaomeng Wang, University of Michigan (Nikolovska-Coleska et al., 2004, Anal. Biochem. 332: 261-273).

red blood cells = assay: In vitro hemolysis; assay type: cell-based; conditions: for % hemolysis at given concentration: 1 hour; for Hemolysis: Table 3, minimum concentration necessary to lyse red blood cells
Description: The identified small molecules were incubated with red blood cells to see what percentage of cells would lyse after 1 hour. Estimated hemolysis data are due to problem with reading absorbance, when the compound absorbs at the same wavelength as heme or if the compound precipitates. In such instances it is difficult to quantitate the absorbance readings; however, visual determination of how many cells have lysed can then be performed, which provides an estimate of cell lysis.

[3] = system: HT-29 (human colorectal adenocarcinoma) cells; assay: Mammalian cell toxicity, CellTiter-Glo cell viability assay; assay type: cell-based
Description: The toxicity of the identified antimicrobial candidate compounds was tested using human colorectal adenocarcinoma cells in vitro. […] The mammalian cells were tested using a CellTiter-Glo cell viability assay (Promega, Madison, Wis.).

[4] = system: Staphylococcus aureus 12598; assay: Bacterial growth assay in LB liquid media, S. aureus; assay type: cell-based
Description: as §1

[5] = target: T1, fluorescein-labeled SSB C-terminal peptide, fluorescein-WMDFDDDIPF (E. coli); assay: equilibrium fluorescence anisotropy
T1 construct: also called F-WT; F-SSB-Ct
T1 peptide: fluorescein-WMDFDDDIPF

[6] = read-out: IC50 μM inhibitor, inhibition of E. coli growth
[7] = read-out: IC(50) E. coli imp4213
[8] = HT-29 cells, CellTiter-Glo, read-out: IC50
[9] = Staphylococcus aureus, 12598, Table 3, reduce growth 50% in liquid media, unit not given (Table 5 gives μM), read-out: IC(50) S. aureus
[10] = Staphylococcus aureus, 12598, Table 5, read-out: IC50 μM inhibitor, inhibition of S. aureus growth

CC1=NN(c2nc3ccccc3s2)C(=O)C1 [Compound 31, 2-(1,3-benzothiazol-2-yl)-5-methyl-2,4-dihydro-3H-pyrazol-3-one]
IC50 [1, 6]: 50 to 100 µM
IC50 [1, 7]: 50 to 100 µM
peptide binding inhibition [2]: much weaker binding; also recorded: did not inhibit binding
% hemolysis at given concentration (red blood cells; >800 μM): 0% >800
Hemolysis (red blood cells): >800 µM

O=C(O)c1ccccc1Nc1cccc(C(F)(F)F)c1 [Compound 32, 2-[3-(trifluoromethyl)anilino]benzoic acid]
IC50 [3, 8]: > 100 µM
IC50 [1, 6]: 33 µM
IC50 [1, 7]: 33 µM
Ki [2]: 1.5 µM
Ki ([2]; Ki estimates, Table 2): 1.5 µM
IC50 [4, 9]: 30 µM
IC50 [4, 10]: 30 µM
% hemolysis at given concentration (red blood cells; >800 μM): 0% >800
Hemolysis (red blood cells): >800 µM

Cc1nn(-c2nc3ccccc3s2)c(O)c1C [Compound 28, 1-(1,3-benzothiazol-2-yl)-3,4-dimethyl-1H-pyrazol-5-ol]
IC50 ([3]; HT-29): > 100 µM
IC50 [1, 6]: 38 µM
IC50 [1, 7]: 38 µM
peptide binding inhibition [2]: did not inhibit binding
% hemolysis at given concentration (red blood cells; >800 μM): 0% >800
Hemolysis (red blood cells): >800 µM

Cc1noc(C)c1C(=O)Nc1nc2ccc(Cl)cc2s1 [Compound 42, N-(6-chloro-1,3-benzothiazol-2-yl)-3,5-dimethyl-4-isoxazolecarboxamide]
IC50 [3, 8]: 51 µM
IC50 [4, 9]: 9 µM
IC50 [4, 10]: 9 µM
% hemolysis at given concentration (red blood cells; >800 μM): 0% >800
Hemolysis (red blood cells): >800 µM

CC(C)c1cc(O)n(-c2nc3ccccc3s2)n1 [Compound 29, 1-(1,3-benzothiazol-2-yl)-3-isopropyl-1H-pyrazol-5-ol]
IC50 ([3]; HT-29): > 100 µM
IC50 [1, 6]: 88 µM
IC50 [1, 7]: 88 µM
peptide binding inhibition [2]: did not inhibit binding
% hemolysis at given concentration (red blood cells; >800 μM): 0% >800
Hemolysis (red blood cells): >800 µM

CC1=NN(c2nc3ccc(Cl)cc3s2)C(=O)C1 [Compound 46, 1-(6-chloro-1,3-benzothiazol-2-yl)-3-methyl-4,5-dihydro-1H-pyrazol-5-one]
IC50 [3, 8]: 55 µM
Ki [2]: 1.5 µM
Ki ([2]; Ki estimates, Table 2): 1.5 µM
% hemolysis at given concentration (red blood cells; >800 μM): 0% >800
Hemolysis (red blood cells): >800 µM

O=[N+]([O-])c1ccc(Oc2cc(C(F)(F)F)ccc2Cl)cc1O [Compound 37, 5-[2-chloro-5-(trifluoromethyl)phenoxy]-2-nitrophenol]
IC50 ([3]; HT-29): > 100 µM
IC50 [1, 6]: 33 µM
IC50 [1, 7]: 33 µM
Ki [2]: 0.7 µM
Ki ([2]; Ki estimates, Table 2): 0.7 µM
IC50 ([4]; Staphylococcus aureus, 12598, read-out: IC50 μM inhibitor, inhibition of S. aureus growth): 2.5 µM
IC50 ([4]; Staphylococcus aureus, 12598, read-out: IC(50) S. aureus): 2.5 µM
% hemolysis at given concentration (red blood cells; 800 μM): estimated 0% 800
Hemolysis (red blood cells): >800 µM

B1: ExoI Arg148 Ala variant (enzyme)
chain: MMNDGKQQSTFLFHDYETFGTHPALDRPAQFAAIRTDSEFNVIGEPEVFYCKPADDYLPQPGAVLITGITPQEARAKGENEAAFAARIHSLFTVPKTCILGYNNVRFDDEVTRNIFYRNFYDPYAWSWQHDNSRWDLLDVMRACYALAPEGINWPENDDGLPSFRLEHLTKANGIEHSNAHDAMADVYATIAMAKLVKTRQPRLFDYLFTHRNKHKLMALIDVPQMKPLVHVSGMFGAWRGNTSWVAPLAWHPENRNAVIMVDLAGDISPLLELDSDTLRERLYTAKTDLGDNAAVPVKLVHINKCPVLAQANTLRPEDADRLGINRQHCLDNLKILRENPQVREKVVAIFAEAEPFTPSDNVDAQLYNGFFSDADRAAMKIVLETEPRNLPALDITFVDKRIEKLLFNYRARNFPGTLDYAEQQRWLEHRRQVFTPEFLQGYADELQMLVQQYADDKEKVALLKALWQYAEEIV
notes: peptide-A-site variant; also called R148A; Arg148 variant
fold weaker binding than wild-type ExoI [5]: 10 to 100 fold

B2: ExoI Asp319 Ala variant (enzyme)
chain: B1 chain with A148R, D319A
notes: also called D319A; Asp319 variant
fold binding defect [5]: 2 fold

B3: ExoI Arg338 Ala variant (enzyme)
chain: B1 chain with A148R, R338A
notes: basic ridge variant; also called R338A; Arg338 variant
fold binding defect [5]: 3 fold

B4: ExoI Arg316 Ala variant (enzyme)
chain: B1 chain with A148R, R316A
notes: peptide-A-site variant; also called R316A; Arg316 variant
fold weaker binding than wild-type ExoI [5]: 10 to 100 fold

B5: ExoI Gln311 Ala variant (enzyme)
chain: B1 chain with A148R, Q311A
notes: peptide-A-site variant; also called Q311A; Gln311 variant
fold binding defect relative to wild-type ExoI [5]: 2 fold
